Tests used:
[1] = tested on: individuals with complaints of nighttime heartburn or regurgitation; assay: Cross-over trial with esophageal pH monitoring combined with overnight PSG after reflux-provoking meal; type: in vivo, human
Source text: Individuals aged 18-65 (inclusive) with complaints of nighttime heartburn or regurgitation at least twice per week and a Carlsson GERD score of at least 5 were invited to participate. […] Participants were also excluded if they took sedating medications on a regular basis (PRN use was allowed if they agreed to abstain from use on the nights in the sleep laboratory). Participants were recruited from a database of patients with heartburn complaints. These participants had previously expressed interest in participating in medical research studies at our facility. Advertising was not utilized in recruitment.
Esophageal pH monitoring was performed using an antimony pH catheter (Sandhill Scientific, Highlands Ranch, Colo., USA) placed in the distal esophagus. The catheter was inserted into the esophagus via the nares and positioned so that the pH electrode was 5 cm above the manometrically determined LES. Prior to insertion the pH electrode was calibrated against solutions of pH 4 and 7. The catheter was connected to an acid reflux monitor, which allowed continuous recordings of esophageal pH for a 24-hour period as well as simultaneous pH monitoring during PSG (ZepHr, Sandhill Scientific).
Data were analyzed using BioVIEW Analysis software (Sandhill Scientific). This software provides a report of upright, supine, and total acid contact time (ACT), which were used as outcome measures in the study.
Overnight polysomnography included monitoring of electroencephalography, electroocculography, submental electromyography, airflow (thermistor), electrocardiogram and SaO2. Distal and proximal pH was also recorded via the polysomnography system. […] “Lights Out” occurred at the patient's usual bedtime. Time in bed was standardized to 8 hours. For the purposes of this study, significant sleep apnea was defined as an apnea hypopnea index (AHI) of at least 10 events per hour of sleep. Individuals with an AHI of 10 or greater on the first sleep study were excluded from the study. Likewise, individuals with a periodic limb movement arousal index (PLMAI) of 10 or greater were excluded.
A reflux event was defined as a period of at least 30 consecutive seconds with pH readings below 4. A reflux event ended when the pH rose to 4 or greater for a period of at least 30 seconds. Reflux events were only counted if they occurred after PSG documented sleep onset had occurred. These analyses were done by hand in order to determine which events occurred during sleep and which occurred during wake. […]
The second and third visits were scheduled one to two weeks after the initial visit, and were separated by a washout period of approximately one week. […] The order of medication was determined by a computer-generated list of random sequences. […]

[2] = tested on: healthy subjects subjected to a transient insomnia protocol; assay: Next day residual effects (DSST, SCT, VAS) and adverse events after PSG night; type: in vivo, human
Method: Next day residual effects were assessed by a comparing pre- and post-PSG Digit Symbol Substitution Test (DSST; 90-s duration) and Symbol Copying Test (SCT; 90-s duration). Hangover effect of baclofen 20 mg was assessed by comparing a Visual Analog Scale (VAS) for sleepiness administered the morning after each PSG. DSST and SCT were administered prior to study medication provided 90 minutes before Lights Out. DSST, SCT, and VAS were conducted 30 minutes after Lights On in the order given. Subjects were contacted between 24-48 hours after each PSG to assess any side-effects or adverse events.
The primary outcome variables were WASO, TST, and SE. Secondary outcome variables were SOL, sTST, sSOL, and sNAS. Exploratory variables to assess residual effects were cognitive and visual analog test scores (DSST, SCT, and VAS). Objective PSG measures such as the percent of time in each sleep stage, subjective self-reports, and residual effects were analyzed using SPSS 11.0 (SPSS Inc., Chicago, Ill., USA). Paired samples t-tests were used to compare means between treatment groups for normally distributed dependent measures. Wilcoxon signed-rank tests were used to compare the medians between treatment groups for non-normally distributed dependent measures. Sample size determination was made based on previous findings in our laboratory from a study of the effect of baclofen in patients with nighttime reflux.

[3] = baclofen vs. placebo; cited from earlier work
normal participants = settings: acute dose 40 mg; cited from earlier work
[4] = baclofen 20 mg vs placebo, next day residual effects, 30 minutes after Lights On

Structure (SMILES): NCC(CC(=O)O)c1ccc(Cl)cc1 (centres unmarked) [Baclofen, 4-amino-3-(4-chlorophenyl)-butanoic acid]
- adverse events ([1]; baclofen 40 mg): No adverse events were documented
- reduction in number of distal reflux events occurring after PSG-determined sleep onset compared to placebo ([1]; baclofen 40 mg 90 minutes before bed, n=21, p<0.05): 56%
- reflux events associated with wakefulness and with sleep, compared to placebo ([1]; baclofen 40 mg, FIG. 1C): reduced reflux events
- decrease in recumbent ACT (acid contact time) versus placebo ([1]; baclofen 40 mg, not statistically significant): approximately 50%
- residual sleepiness testing, Visual Analog Scale (VAS) ([2]; baclofen 20 mg vs placebo, morning after each PSG): no significant differences between treatment conditions
- cognitive testing, Digit Symbol Substitution Test (DSST) [2, 4]: no significant differences between treatment conditions
- cognitive testing, Symbol Copying Test (SCT) [2, 4]: no significant differences between treatment conditions
- serious adverse events ([2]; baclofen 20 mg, contacted 24-48 hours after each PSG): No serious adverse events were reported
- decrease in reflux events in other studies [3]: ~40%
- ACT (normal participants): no significant change
- postprandial reflux events (normal participants): significant reduction

From US9622997B2, “Methods for treating insomnia” (Lynn Health Science Institute, Inc., priority 2012, dated 2017)
